According to publication PMC12638379, “An innovative approach to development of new pyrazolylquinolin-2-one hybrids as dual EGFR and BRAF^V600E inhibitors” (Molecular Diversity, 2025):
Like-named read-outs stand apart in the source and are kept apart here.

Test system: NCI 60 cancer cell lines
Assay: NCI anticancer screening over a panel of 60 cancer cells, single concentration 10 µM
Format: cell-based, human
Settings: Homo sapiens, read-out: Growth inhibition (GI %)
Method in brief: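 Primary single-dose screen at 10 µM over the NCI panel of 60 human tumour cell lines (leukemia, CNS, lung, colon, kidney, ovary, breast, prostate). The standard NCI Developmental Therapeutics Program protocol was used.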

For `CC(=O)c1cnn(-c2cc(=O)[nH]c3ccc(Br)cc23)c1C` [Compound 2e, 4-(4-Acetyl-5-methyl-1H-pyrazol-1-yl)-6-bromoquinolin-2(1H)-one], the inhibition at 10 µM (786-0, Renal cancer 786-0, 10 μM) was less than 5%, the inhibition at 10 µM (A498, Renal cancer A498, 10 μM) was less than 5% and the inhibition at 10 µM (A549, Non-small cell lung cancer A549/ATCC, 10 μM) was less than 5%. The inhibition at 10 µM (ACHN, Renal cancer ACHN, 10 μM) was less than 5%, the inhibition at 10 µM (BT-549, Breast cancer BT-549, 10 μM) was less than 5% and the inhibition at 10 µM (CAKI-1, Renal cancer CAKI-1, 10 μM) was 16.5%. It also gave an inhibition at 10 µM (CCRF-CEM, Leukemia CCRF-CEM, 10 μM) of 8.16%, an inhibition at 10 µM (COLO 205, Colon cancer COLO 205, 10 μM) of less than 5% and an inhibition at 10 µM (DU-145, Prostate cancer DU-145, 10 μM) of less than 5%. The inhibition at 10 µM (EKVX, Non-small cell lung cancer EKVX, 10 μM) was 6.46%, the inhibition at 10 µM (HCC 2998, Colon cancer HCC-2998, 10 μM) was less than 5% and the inhibition at 10 µM (HCT-15, Colon cancer HCT-15, 10 μM) was less than 5%. It also gave an inhibition at 10 µM (HCT-116, Colon cancer HCT-116, 10 μM) of less than 5%, an inhibition at 10 µM (HL-60, Leukemia HL-60(TB), 10 μM) of 12.8% and an inhibition at 10 µM (HOP-62, Non-small cell lung cancer HOP-62, 10 μM) of 13.6%. For the same compound, the inhibition at 10 µM (HOP-92, Non-small cell lung cancer HOP-92, 10 μM) was 20.4%, the inhibition at 10 µM (HT-29, Colon cancer HT29, 10 μM) was 7.95% and the inhibition at 10 µM (Hs-578T, Breast cancer HS 578T, 10 μM) was 6.91%. The inhibition at 10 µM (IGROV-1, Ovarian cancer IGROV1, 10 μM) was less than 5%, the inhibition at 10 µM (K562, Leukemia K-562, 10 μM) was less than 5% and the inhibition at 10 µM (KM12, Colon cancer KM12, 10 μM) was less than 5%. The inhibition at 10 µM (LOX IMVI, Melanoma LOX IMVI, 10 μM) was 9.22%, the inhibition at 10 µM (Leukemia SR, 10 μM) was less than 5% and the inhibition at 10 µM (MCF7, Breast cancer MCF7, 10 μM) was less than 5%. It also gave an inhibition at 10 µM (MDA-MB-231, Breast Cancer MDA-MB 231/ATCC, 10 μM) of less than 5%, an inhibition at 10 µM (MDA-MB-435, Melanoma MDA-MB-435, 10 μM) of less than 5% and an inhibition at 10 µM (MDA-MB-468, Breast cancer MDA-MB-468, 10 μM) of less than 5%. It also gave an inhibition at 10 µM (MOLT-4, Leukemia MOLT-4, 10 μM) of less than 5%, an inhibition at 10 µM (Malme-3M, Melanoma MALME-3M, 10 μM) of 14% and an inhibition at 10 µM (Melanoma M14, 10 μM) of less than 5%. The inhibition at 10 µM (NCI-H23, Non-small cell lung cancer NCI-H23, 10 μM) was less than 5%, the inhibition at 10 µM (NCI-H226, Non-small cell lung cancer NCI-H226, 10 μM) was 10.7% and the inhibition at 10 µM (NCI-H322M, Non-small cell lung cancer NCI-H322M, 10 μM) was less than 5%. For the same compound, the inhibition at 10 µM (NCI-H460, Non-small cell lung cancer NCI-H460, 10 μM) was less than 5%, the inhibition at 10 µM (NCI-H522, Non-small cell lung cancer NCI-H522, 10 μM) was 7.32% and the inhibition at 10 µM (NCI/ADR-RES, Ovarian cancer NCI/ADR-RES, 10 μM) was less than 5%. It also gave an inhibition at 10 µM (OVCAR-3, Ovarian cancer OVCAR-3, 10 μM) of less than 5%, an inhibition at 10 µM (OVCAR-4, Ovarian cancer OVCAR-4, 10 μM) of less than 5% and an inhibition at 10 µM (OVCAR-5, Ovarian cancer OVCAR-5, 10 μM) of less than 5%. It also gave an inhibition at 10 µM (OVCAR-8, Ovarian cancer OVCAR-8, 10 μM) of less than 5%, an inhibition at 10 µM (Prostate cancer PC-3, 10 μM) of 13.3% and an inhibition at 10 µM (RPMI-8226, Leukemia RPMI-8226, 10 μM) of 9.34%. For the same compound, the inhibition at 10 µM (RXF 393, Renal cancer RXF 393, 10 μM) was less than 5%, the inhibition at 10 µM (SF-268, CNS Cancer SF-268, 10 μM) was less than 5% and the inhibition at 10 µM (SF-295, CNS Cancer SF-295, 10 μM) was 6.55%. For the same compound, the inhibition at 10 µM (SF-539, CNS Cancer SF-539, 10 μM) was 7.46%, the inhibition at 10 µM (SK-MEL-2, Melanoma SK-MEL-2, 10 μM) was less than 5% and the inhibition at 10 µM (SK-MEL-5, Melanoma SK-MEL-5, 10 μM) was less than 5%. For the same compound, the inhibition at 10 µM (SK-MEL-28, Melanoma SK-MEL-28, 10 μM) was less than 5%, the inhibition at 10 µM (SK-OV-3, Ovarian cancer SK-OV-3, 10 μM) was less than 5% and the inhibition at 10 µM (SN12C, Renal cancer SN12C, 10 μM) was 6.46%. For the same compound, the inhibition at 10 µM (SNB-19, CNS Cancer SNB-19, 10 μM) was 5.52%, the inhibition at 10 µM (SNB-75, CNS Cancer SNB-75, 10 μM) was 15.6% and the inhibition at 10 µM (SW-620, Colon cancer SW-620, 10 μM) was less than 5%. For the same compound, the inhibition at 10 µM (T47D, Breast cancer T-47D, 10 μM) was 12.2%, the inhibition at 10 µM (TK-10, Renal cancer TK-10, 10 μM) was less than 5% and the inhibition at 10 µM (U-251, CNS Cancer U251, 10 μM) was less than 5%. For the same compound, the inhibition at 10 µM (UACC-62, Melanoma UACC-62, 10 μM) was less than 5%, the inhibition at 10 µM (UACC-257, Melanoma UACC-257, 10 μM) was less than 5% and the inhibition at 10 µM (UO-31, Renal cancer UO-31, 10 μM) was 37.4%.
